Data on four compounds can be found in US11034650B2, “Compounds useful for treating a Mannheimia haemolytica or Histophilus somni infection” (Intervet Inc., priority 2016, dated 2021).

The structures appear in SMILES notation. ≈ marks a conversion by molar mass, not a printed value.

One test relates to Mannheimia haemolytica MH 6357 (M7/2, reference strain, cattle infection strain). Nature of the test: MIC, broth-microdilution (CLSI VET01-A4), strain MH 6357. The class given is cell-based. The settings on record: Mannheimia haemolytica strain MH 6357, broth-microdilution; unit assumed. In short, it runs like this: (§1)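 Growth inhibition is scored visually on a doubling dilution series. The reported MIC corresponds to the lowest concentration free of turbidity, with results assessed under CLSI VET01-S3.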
Take `CC(C)[C@H](NC(=O)c1ccc(C#Cc2ccc(CNCc3ccco3)cc2)cc1)C(=O)NO` [Compound 170]: the MIC MH 6357 was found to be 0.2 µg/mL (≈ 0.449 µM).
The same measure, in the same setting: to `CC(C)[C@H](NC(=O)c1ccc(C#Cc2ccc(CN3CCCCC3)cc2)cc1)C(=O)NO` [Compound 166] belongs 3.1 µg/mL (≈ 7.15 µM); to `CNCc1ccc(C#Cc2ccc(C(=O)N[C@H](C(=O)NO)C(C)C)cc2)cc1` [Compound 207], 12.5 µg/mL (≈ 32.9 µM); to `CSC(C)(C)[C@H](NC(=O)c1ccc(C#Cc2ccc(CNCc3ccncc3)s2)cc1)C(=O)NO` [Compound 364], 0.8 µg/mL (≈ 1.57 µM).

A further test has as its system Mannheimia haemolytica MH 6374 (ATCC 33396, reference strain). Nature of the test: MIC, broth-microdilution (CLSI VET01-A4), strain MH 6374. Particulars: Mannheimia haemolytica strain MH 6374, broth-microdilution; unit assumed. The class given is cell-based. An outline of the steps: as §1
`CC(C)[C@H](NC(=O)c1ccc(C#Cc2ccc(CNCc3ccco3)cc2)cc1)C(=O)NO` [Compound 170] gave an MIC MH 6374 of 0.4 µg/mL (≈ 0.898 µM).
On the same count and under the same terms, to `CC(C)[C@H](NC(=O)c1ccc(C#Cc2ccc(CN3CCCCC3)cc2)cc1)C(=O)NO` [Compound 166] belongs 6.3 µg/mL (≈ 14.5 µM).
The same measure, in the same setting: to `CNCc1ccc(C#Cc2ccc(C(=O)N[C@H](C(=O)NO)C(C)C)cc2)cc1` [Compound 207] belongs 12.5 µg/mL (≈ 32.9 µM); to `CSC(C)(C)[C@H](NC(=O)c1ccc(C#Cc2ccc(CNCc3ccncc3)s2)cc1)C(=O)NO` [Compound 364], 0.8 µg/mL (≈ 1.57 µM).

The test system of a further test is Mannheimia haemolytica MH 10720 (154, BRD field isolate). Nature of the test: MIC, broth-microdilution (CLSI VET01-A4), strain MH 10720. Format: cell-based. The settings on record: Mannheimia haemolytica strain MH 10720, broth-microdilution; unit assumed. In short, it runs like this:
as §1
On to `CC(C)[C@H](NC(=O)c1ccc(C#Cc2ccc(CNCc3ccco3)cc2)cc1)C(=O)NO` [Compound 170], for which the MIC MH 10720 is ≤ 0.1 µg/mL.
The compound `CC(C)[C@H](NC(=O)c1ccc(C#Cc2ccc(CN3CCCCC3)cc2)cc1)C(=O)NO` [Compound 166] returned an MIC MH 10720 of 0.8 µg/mL (≈ 1.85 µM).
On the same count and under the same terms, to `CNCc1ccc(C#Cc2ccc(C(=O)N[C@H](C(=O)NO)C(C)C)cc2)cc1` [Compound 207] belongs 3.1 µg/mL (≈ 8.17 µM); to `CSC(C)(C)[C@H](NC(=O)c1ccc(C#Cc2ccc(CNCc3ccncc3)s2)cc1)C(=O)NO` [Compound 364], 0.2 µg/mL (≈ 0.393 µM).

In the next test the test system is Mannheimia haemolytica MH 12587 (1071, BRD field isolate, macrolide-resistance: erm+, E+). Nature of the test: MIC, broth-microdilution (CLSI VET01-A4), strain MH 12587. Format: cell-based. The settings on record: Mannheimia haemolytica strain MH 12587, broth-microdilution; unit assumed. In short, it runs like this: as §1
The compound `CC(C)[C@H](NC(=O)c1ccc(C#Cc2ccc(CNCc3ccco3)cc2)cc1)C(=O)NO` [Compound 170] had an MIC MH 12587 of 0.4 µg/mL (≈ 0.898 µM).
Still for that read-out and setting: as for `CC(C)[C@H](NC(=O)c1ccc(C#Cc2ccc(CN3CCCCC3)cc2)cc1)C(=O)NO` [Compound 166], the figure is 6.3 µg/mL (≈ 14.5 µM); as for `CNCc1ccc(C#Cc2ccc(C(=O)N[C@H](C(=O)NO)C(C)C)cc2)cc1` [Compound 207], 12.5 µg/mL (≈ 32.9 µM).
The same measure, in the same setting: to `CSC(C)(C)[C@H](NC(=O)c1ccc(C#Cc2ccc(CNCc3ccncc3)s2)cc1)C(=O)NO` [Compound 364] belongs 1.6 µg/mL (≈ 3.15 µM).

The next test has as its system Mannheimia haemolytica MH 13065 (XB0446-6003.9, BRD field isolate). Put plainly: MIC, broth-microdilution (CLSI VET01-A4), strain MH 13065. The class given is cell-based. The settings on record: Mannheimia haemolytica strain MH 13065, broth-microdilution; unit assumed. In short, it runs like this:
as §1
For `CC(C)[C@H](NC(=O)c1ccc(C#Cc2ccc(CNCc3ccco3)cc2)cc1)C(=O)NO` [Compound 170], the MIC MH 13065 turned out to be 0.4 µg/mL (≈ 0.898 µM).
Still for that read-out and setting: to `CC(C)[C@H](NC(=O)c1ccc(C#Cc2ccc(CN3CCCCC3)cc2)cc1)C(=O)NO` [Compound 166] belongs 6.3 µg/mL (≈ 14.5 µM); to `CNCc1ccc(C#Cc2ccc(C(=O)N[C@H](C(=O)NO)C(C)C)cc2)cc1` [Compound 207], 6.3 µg/mL (≈ 16.6 µM); to `CSC(C)(C)[C@H](NC(=O)c1ccc(C#Cc2ccc(CNCc3ccncc3)s2)cc1)C(=O)NO` [Compound 364], 0.8 µg/mL (≈ 1.57 µM).

In the next test the test system is Mannheimia haemolytica MH 13093 (XB0472-6014.1, BRD field isolate). Nature of the test: MIC, broth-microdilution (CLSI VET01-A4), strain MH 13093. Format: cell-based. The settings on record: Mannheimia haemolytica strain MH 13093, broth-microdilution; unit assumed. An outline of the steps:
as §1
On to `CC(C)[C@H](NC(=O)c1ccc(C#Cc2ccc(CNCc3ccco3)cc2)cc1)C(=O)NO` [Compound 170], for which the MIC MH 13093 was 0.4 µg/mL (≈ 0.898 µM).
Still for that read-out and setting: as for `CC(C)[C@H](NC(=O)c1ccc(C#Cc2ccc(CN3CCCCC3)cc2)cc1)C(=O)NO` [Compound 166], the figure is 6.3 µg/mL (≈ 14.5 µM); as for `CNCc1ccc(C#Cc2ccc(C(=O)N[C@H](C(=O)NO)C(C)C)cc2)cc1` [Compound 207], 12.5 µg/mL (≈ 32.9 µM); as for `CSC(C)(C)[C@H](NC(=O)c1ccc(C#Cc2ccc(CNCc3ccncc3)s2)cc1)C(=O)NO` [Compound 364], 0.8 µg/mL (≈ 1.57 µM).

Another test relates to Pasteurella multocida PM 6267 (P 2225 (L386), reference strain, mouse infection strain). Nature of the test: MIC, broth-microdilution (CLSI VET01-A4), strain PM 6267. The class given is cell-based. The settings on record: Pasteurella multocida strain PM 6267, broth-microdilution; unit assumed. An outline of the steps:
as §1
With `CC(C)[C@H](NC(=O)c1ccc(C#Cc2ccc(CNCc3ccco3)cc2)cc1)C(=O)NO` [Compound 170], the MIC PM 6267 was ≤ 0.1 µg/mL.
As for `CC(C)[C@H](NC(=O)c1ccc(C#Cc2ccc(CN3CCCCC3)cc2)cc1)C(=O)NO` [Compound 166], the MIC PM 6267 amounted to 0.2 µg/mL (≈ 0.461 µM).
The same measure, in the same setting: to `CNCc1ccc(C#Cc2ccc(C(=O)N[C@H](C(=O)NO)C(C)C)cc2)cc1` [Compound 207] belongs 0.2 µg/mL (≈ 0.527 µM); to `CSC(C)(C)[C@H](NC(=O)c1ccc(C#Cc2ccc(CNCc3ccncc3)s2)cc1)C(=O)NO` [Compound 364], 0.4 µg/mL (≈ 0.786 µM).

Another test deals with Pasteurella multocida PM 6391 (ATCC 43137, reference strain). Nature of the test: MIC, broth-microdilution (CLSI VET01-A4), strain PM 6391. The settings on record: Pasteurella multocida strain PM 6391, broth-microdilution; unit assumed. The class given is cell-based. In short, it runs like this:
as §1
`CC(C)[C@H](NC(=O)c1ccc(C#Cc2ccc(CNCc3ccco3)cc2)cc1)C(=O)NO` [Compound 170] displayed an MIC PM 6391 of 0.4 µg/mL (≈ 0.898 µM).
The same measure, in the same setting: as for `CC(C)[C@H](NC(=O)c1ccc(C#Cc2ccc(CN3CCCCC3)cc2)cc1)C(=O)NO` [Compound 166], the figure is 0.8 µg/mL (≈ 1.85 µM); as for `CNCc1ccc(C#Cc2ccc(C(=O)N[C@H](C(=O)NO)C(C)C)cc2)cc1` [Compound 207], 0.8 µg/mL (≈ 2.11 µM); as for `CSC(C)(C)[C@H](NC(=O)c1ccc(C#Cc2ccc(CNCc3ccncc3)s2)cc1)C(=O)NO` [Compound 364], 0.4 µg/mL (≈ 0.786 µM).

For a further test, the system named is Pasteurella multocida PM 10775 (080130003051, BRD field isolate). Put plainly: MIC, broth-microdilution (CLSI VET01-A4), strain PM 10775. Format: cell-based. The settings on record: Pasteurella multocida strain PM 10775, broth-microdilution; unit assumed. In short, it runs like this: as §1
For `CC(C)[C@H](NC(=O)c1ccc(C#Cc2ccc(CNCc3ccco3)cc2)cc1)C(=O)NO` [Compound 170], the MIC PM 10775 is ≤ 0.1 µg/mL.
Still for that read-out and setting: to `CC(C)[C@H](NC(=O)c1ccc(C#Cc2ccc(CN3CCCCC3)cc2)cc1)C(=O)NO` [Compound 166] belongs ≤ 0.1 µg/mL.
For the compound `CNCc1ccc(C#Cc2ccc(C(=O)N[C@H](C(=O)NO)C(C)C)cc2)cc1` [Compound 207], the MIC PM 10775 is ≤ 0.1 µg/mL.
On the same count and under the same terms, as for `CSC(C)(C)[C@H](NC(=O)c1ccc(C#Cc2ccc(CNCc3ccncc3)s2)cc1)C(=O)NO` [Compound 364], the figure is ≤ 0.1 µg/mL.

Another test deals with Pasteurella multocida PM 12080 (IV102277-0093, BRD field isolate). Put plainly: MIC, broth-microdilution (CLSI VET01-A4), strain PM 12080. The class given is cell-based. The settings on record: Pasteurella multocida strain PM 12080, broth-microdilution; unit assumed. In short, it runs like this: as §1
In the case of `CC(C)[C@H](NC(=O)c1ccc(C#Cc2ccc(CNCc3ccco3)cc2)cc1)C(=O)NO` [Compound 170], the MIC PM 12080 is 0.2 µg/mL (≈ 0.449 µM).
On the same count and under the same terms, to `CC(C)[C@H](NC(=O)c1ccc(C#Cc2ccc(CN3CCCCC3)cc2)cc1)C(=O)NO` [Compound 166] belongs 0.4 µg/mL (≈ 0.923 µM).
`CNCc1ccc(C#Cc2ccc(C(=O)N[C@H](C(=O)NO)C(C)C)cc2)cc1` [Compound 207] showed an MIC PM 12080 of 0.8 µg/mL (≈ 2.11 µM).
Same read-out and setting: as for `CSC(C)(C)[C@H](NC(=O)c1ccc(C#Cc2ccc(CNCc3ccncc3)s2)cc1)C(=O)NO` [Compound 364], the figure is ≤ 0.1 µg/mL.
